Molecules are shown by their SMILES.

The target of assay [1] is T1, ERR1 (also known as ERR-α or ERR-1) (Homo sapiens, UniProt P11474).
T1 sequence (P11474 193-421 limits assumed): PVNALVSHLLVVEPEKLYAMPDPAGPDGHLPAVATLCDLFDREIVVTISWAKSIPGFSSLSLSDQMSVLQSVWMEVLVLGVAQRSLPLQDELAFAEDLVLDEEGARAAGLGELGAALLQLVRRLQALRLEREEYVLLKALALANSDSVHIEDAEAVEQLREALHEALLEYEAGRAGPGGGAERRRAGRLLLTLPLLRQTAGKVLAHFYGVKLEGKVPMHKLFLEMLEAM
Kind of assay: TR-FRET assay (disruption of co-activator peptide binding). The format is biochemical. The settings on record: 6His-tagged ERR1 LBD, GST-hSRC2 co-activator polypeptide; average of 3 independent experiments. In short, it runs like this:
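His6-ERR1 LBD (6 nM) with GST-SRC-2 peptide (6 nM), anti-GST Eu cryptate (30 nM) and anti-His XL665 (7.5 nM) in Tris pH 8/KCl/DTT/BSA buffer, equilibrated 4-18 h at 25 °C. Ex 340, em 615/665 nm; hyperbolic dose-response fit, mean of 3 experiments.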
In general terms: In TR-FRET formats the signal depends on donor and acceptor labels being close together.

A further assay relates to Zucker fa/fa male rats. Kind of assay: Zucker fa/fa Rat Model Assay. The note with it: dosed orally once a day for 4 days, blood collected at day 5. Format: in vivo. From the text: Zucker fa/fa is a monogenic model of frank diabetes due to a mutation on the fa gene truncating the leptin receptor and preventing its interaction with its peptide hormone. This mutation results in a hyperphagic phenotype and the rodent develops obesity, hyperlipidemia, fasting hyperglycemia and insulin resistance. Zucker fa/fa male rats were received at four weeks of age and allowed to acclimate for one week. At five weeks of age the animals were single housed in cages in a temperature-controlled room with 12-hour light/dark cycle. The rats were allowed ad libitum access to water and food and throughout the study were maintained on a Purina 5008 diet. Animals were sorted based primarily on fed insulin levels and circulating triglycerides. Animals were dosed orally once a day in the morning for 4 days. The vehicle used was either 20% HPβCD (Hydroxypropyl Beta Cyclodextrin) or 15% Vitamin E/30% PEG-400 (Polyethylene Glycol 400). Fed insulin and triglycerides were measured using blood collected from the tail vein at day 5. Serum plasma samples were prepared by centrifugation in EDTA (Ethylenediaminetetraacetic acid) containing tubes, transferred into 96 well plates and stored at −80° C.

One may read the EC50 as the concentration giving half of the maximal effect. For the compound `O=C1N=C(N2CCC(C(=O)O)CC2)S/C1=C\c1ccc2c(cnn2Cc2ccc(C(F)(F)F)cc2C(F)(F)F)c1` [Compound 1, 1-{5-[1-(2,4-Bis-trifluoromethyl-benzyl)-1H-indazol-5-ylmethylene]-4-oxo-4,5-dihydro-thiazol-2-yl}-piperidine-4-carboxylic acid], in assay [1], the EC50 stood at 10.1 nM. In the assay with Zucker fa/fa male rats, the “% Lowering Fed Insulin Levels” value worked out at 58% and the “% Lowering Fed Triglyceride Levels” value is 37%.
The matching figures for `O=C1N=C(N2CC(C(=O)O)C2)S/C1=C\c1ccc2c(cnn2Cc2ccc(C(F)(F)F)cc2C(F)(F)F)c1` [Example 35, 1-{5-[1-(2,4-Bis-trifluoromethyl-benzyl)-1H-indazol-5-ylmethylene]-4-oxo-4,5-dihydro-thiazol-2-yl}-azetidine-3-carboxylic acid]: 14.3 nM, 45% and 20%.
The matching figures for `O=C1N=C(N2CCC(C(=O)O)CC2)S/C1=C\c1ccc2c(cnn2Cc2ccc(Cl)cc2C(F)(F)F)c1` [Example 39, 1-{5-[1-(4-Chloro-2-trifluoromethyl-benzyl)-1H-indazol-5-ylmethylene]-4-oxo-4,5-dihydro-thiazol-2-yl}-piperidine-4-carboxylic acid]: 3.2 nM, 58% and 35%.
On the same counts, the results for `O=C1N=C(N2CC(C(=O)O)C2)S/C1=C\c1ccc2c(cnn2Cc2ccc(Cl)cc2C(F)(F)F)c1` [Example 40, 1-{5-[1-(4-Chloro-2-trifluoromethyl-benzyl)-1H-indazol-5-ylmethylene]-4-oxo-4,5-dihydro-thiazol-2-yl}-azetidine-3-carboxylic acid] are 8 nM, 75% and 60%.
`N[C@H]1CCCN(C2=NC(=O)/C(=C/c3ccc4c(cnn4Cc4ccc(C(F)(F)F)cc4C(F)(F)F)c3)S2)C1` [Example 52, 2-(3-(S)-Amino-piperidin-1-yl)-5-[1-(2,4-bis-trifluoromethyl-benzyl)-1H-indazol-5-ylmethylene]-thiazol-4-one] returned an EC50 in assay [1] of 4.5 nM. Besides, in the assay on Zucker fa/fa male rats, the “% Lowering Fed Insulin Levels” value is 86% and the “% Lowering Fed Triglyceride Levels” value came out at 55%.
On the same counts, the results for `O=C1N=C(N2CCCNCC2)S/C1=C\c1ccc2c(cnn2Cc2ccc(Cl)cc2C(F)(F)F)c1` [Example 54, 5-[1-(4-Chloro-2-trifluoromethyl-benzyl)-1H-indazol-5-ylmethylene]-2-[1,4]diazepan-1-yl-thiazol-4-one] are 13.1 nM, 60% and 27%.
The matching figures for `COCCN1CCN(C2=NC(=O)/C(=C/c3ccc4c(cnn4Cc4ccc(Cl)cc4C(F)(F)F)c3)S2)CC1` [Example 56, 5-[1-(4-Chloro-2-trifluoromethyl-benzyl)-1H-indazol-5-ylmethylene]-2-[4-(2-methoxy-ethyl)-piperazin-1-yl]-thiazol-4-one]: 15.7 nM, 70% and 68%.
On the same counts, the results for `N[C@@H]1CCN(C2=NC(=O)/C(=C/c3ccc4c(cnn4Cc4ccc(Cl)cc4C(F)(F)F)c3)S2)C1` [Example 62, 2-(3-(R)-Amino-pyrrolidin-1-yl)-5-[1-(4-chloro-2-trifluoromethyl-benzyl)-1H-indazol-5-ylmethylene]-thiazol-4-one] are 17.3 nM, 48% and 36%.
For `O=C1N=C(N2CCC[C@H]2CN2CCCC2)S/C1=C\c1ccc2c(cnn2Cc2ccc(Cl)cc2C(F)(F)F)c1` [Example 64, 5-[1-(4-Chloro-2-trifluoromethyl-benzyl)-1H-indazol-5-ylmethylene]-2-(S)-(2-pyrrolidin-1-ylmethyl-pyrrolidin-1-yl)-thiazol-4-one], a half-maximal response in assay [1] (EC50) required 25 nM. Further, in the assay with Zucker fa/fa male rats, the “% Lowering Fed Insulin Levels” value turned out to be 46% and the “% Lowering Fed Triglyceride Levels” value came to 51%.
In turn, `O=C1N=C(N2C[C@@H]3C[C@H]2CN3CCO)S/C1=C\c1ccc2c(cnn2Cc2ccc(C(F)(F)F)cc2C(F)(F)F)c1` [Example 71, 5-[1-(2,4-Bis-trifluoromethyl-benzyl)-1H-indazol-5-ylmethylene]-2-[5-(2-hydroxy-ethyl)-2S,5S-diaza-bicyclo[2.2.1]hept-2-yl]-thiazol-4-one] came in with an EC50 in assay [1] of 16.4 nM. For the same compound, in the assay on Zucker fa/fa male rats, the “% Lowering Fed Insulin Levels” value was 37% and the “% Lowering Fed Triglyceride Levels” value worked out at 25%.
On the same counts, the results for `CN(C)C(=O)CN1CCN(C2=NC(=O)/C(=C/c3ccc4c(cnn4Cc4ccc(Cl)cc4C(F)(F)F)c3)S2)CC1` [Example 72, 2-(4-{5-[1-(4-Chloro-2-trifluoromethyl-benzyl)-1H-indazol-5-ylmethylene]-4-oxo-4,5-dihydro-thiazol-2-yl}-piperazin-1-yl)-N,N-dimethyl-acetamide] are 13.3 nM, 62% and 57%.
As for `NC1CN(C2=NC(=O)/C(=C/c3ccc4c(cnn4Cc4ccc(Cl)cc4C(F)(F)F)c3)S2)C1` [Example 98, 2-(3-Amino-azetidin-1-yl)-5-[1-(4-chloro-2-trifluoromethyl-benzyl)-1H-indazol-5-ylmethylene]-thiazol-4-one], in assay [1], it took 15 nM to reach a half-maximal effect (EC50). In addition, in the assay with Zucker fa/fa male rats, the “% Lowering Fed Insulin Levels” value is 51% and the “% Lowering Fed Triglyceride Levels” value is 22%.
For the compound `O=C1N=C(N2CCNCC(O)C2)S/C1=C\c1ccc2c(cnn2Cc2ccc(Cl)cc2C(F)(F)F)c1` (stereo not drawn) [Example 125, 5-[1-(4-Chloro-2-trifluoromethyl-benzyl)-1H-indazol-5-ylmethylene]-2-(6-hydroxy-[1,4]diazepan-1-yl)-thiazol-4-one], the EC50 in assay [1] is 10 nM. Also, the “% Lowering Fed Insulin Levels” value in the assay with Zucker fa/fa male rats is listed as 30%.
`O=C1N=C(N2CCN[C@@H](CO)C2)S/C1=C\c1ccc2c(cnn2Cc2ccc(C(F)(F)F)cc2C(F)(F)F)c1` [Example 139, 5-[1-(2,4-Bis-trifluoromethyl-benzyl)-1H-indazol-5-ylmethylene]-2-(3-(R)-hydroxymethyl-piperazin-1-yl)-thiazol-4-one] showed an EC50 in assay [1] of 16 nM. Further, in the assay with Zucker fa/fa male rats, the “% Lowering Fed Insulin Levels” value came to 82% and the “% Lowering Fed Triglyceride Levels” value is listed as 58%.
The matching figures for `O=C1N=C(N2CCO[C@H](CO)C2)S/C1=C\c1ccc2c(cnn2Cc2ccc(C(F)(F)F)cc2C(F)(F)F)c1` [Example 140, 5-[1-(2,4-Bis-trifluoromethyl-benzyl)-1H-indazol-5-ylmethylene]-2-((2S)-hydroxymethyl-morpholin-4-yl)-thiazol-4-one]: 19 nM, 59% and 67%.
The matching figures for `O=C1N=C(N2CCOC[C@H]2CO)S/C1=C\c1ccc2c(cnn2Cc2ccc(C(F)(F)F)cc2C(F)(F)F)c1` [Example 141, 5-[1-(2,4-Bis-trifluoromethyl-benzyl)-1H-indazol-5-ylmethylene]-2-(3(R)-hydroxymethyl-morpholin-4-yl)-thiazol-4-one]: 37 nM, 49% and 76%.
In assay [1], `CC(C)(C)OC(=O)N1CCN(C2=NC(=O)/C(=C/c3ccc4c(c3)c(I)nn4Cc3ccc(C(F)(F)F)cc3C(F)(F)F)S2)C[C@@H]1CO` [Example 279, tert-Butyl (2R)-4-[5-({1-[2,4-bis(trifluoromethyl)benzyl]-3-iodo-1H-indazol-5-yl}methylidene)-4-oxo-4,5-dihydro-1,3-thiazol-2-yl]-2-(hydroxymethyl)piperazine-1-carboxylate] had an EC50 of 11 nM.
Still for that read-out and setting: in the case of `CC(=O)OC[C@@H]1CN(C2=NC(=O)/C(=C/c3ccc4c(cnn4Cc4ccc(C(F)(F)F)cc4C(F)(F)F)c3)S2)CCO1` [Example 280, {(2S)-4-[5-({1-[2,4-Bis(trifluoromethyl)benzyl]-1H-indazol-5-yl}methylidene)-4-oxo-4,5-dihydro-1,3-thiazol-2-yl]morpholin-2-yl}methyl acetate] it was 3 nM.
On the same count and under the same terms, in the case of `O=C1N=C(N2CCO[C@H](CO)C2)S/C1=C\c1ccc2c(cnn2Cc2ncccc2C(F)(F)F)c1` [Example 281, 2-[(2S)-2-(Hydroxymethyl)morpholin-4-yl]-5-[(1-{[3-(trifluoromethyl)pyridin-2-yl]methyl}-1H-indazol-5-yl)methylidene]-1,3-thiazol-4(5H)-one] it was 590 nM.
Still for that read-out and setting: in the case of `COC(=O)CNC(=O)[C@@H]1CN(C2=NC(=O)/C(=C/c3ccc4c(cnn4Cc4ccc(C(F)(F)F)cc4C(F)(F)F)c3)S2)CCO1` [Example 282, Methyl N-({(2S)-4-[5-({1-[2,4-bis(trifluoromethyl)benzyl]-1H-indazol-5-yl}methylidene)-4-oxo-4,5-dihydro-1,3-thiazol-2-yl]morpholin-2-yl}carbonyl)glycinate] it was more than 4000 nM.

The record behind these values is patent US8399681B2, “Substituted aminothiazolone indazoles as estrogen related receptor-alpha modulators” (Janssen Pharmaceutica NV, priority 2009, dated 2013).
